± gives the expanded uncertainty stated by the source.
Assay: excess molar enthalpy (molar enthalpy of mixing); xn = mol fraction of the nth substance listed
Conditions: 308.15 K, 101 kPa, Liquid, Calvet calorimetry

SMILES: C1CCNCC1 [piperidine] + C1COCCN1
- excess molar enthalpy (x2 = 0.126): 0.0251 ± 0.000956 kcal/mol
- excess molar enthalpy (x2 = 0.2): 0.0375 ± 0.0012 kcal/mol
- excess molar enthalpy (x2 = 0.33): 0.0531 ± 0.00167 kcal/mol
- excess molar enthalpy (x2 = 0.435): 0.0605 ± 0.00191 kcal/mol
- excess molar enthalpy (x2 = 0.499): 0.0631 ± 0.00191 kcal/mol
- excess molar enthalpy (x2 = 0.601): 0.0626 ± 0.00191 kcal/mol
- excess molar enthalpy (x2 = 0.701): 0.0564 ± 0.00167 kcal/mol
- excess molar enthalpy (x2 = 0.802): 0.0447 ± 0.00143 kcal/mol
- excess molar enthalpy (x2 = 0.901): 0.0261 ± 0.000956 kcal/mol

SMILES: C1CCNCC1 [piperidine] + C1COCCO1
- excess molar enthalpy (x2 = 0.113): 0.0853 ± 0.00263 kcal/mol
- excess molar enthalpy (x2 = 0.2): 0.131 ± 0.00406 kcal/mol
- excess molar enthalpy (x2 = 0.297): 0.167 ± 0.00526 kcal/mol
- excess molar enthalpy (x2 = 0.401): 0.188 ± 0.00574 kcal/mol
- excess molar enthalpy (x2 = 0.515): 0.195 ± 0.00598 kcal/mol
- excess molar enthalpy (x2 = 0.6): 0.186 ± 0.00574 kcal/mol
- excess molar enthalpy (x2 = 0.703): 0.159 ± 0.00502 kcal/mol
- excess molar enthalpy (x2 = 0.825): 0.108 ± 0.00335 kcal/mol
- excess molar enthalpy (x2 = 0.9): 0.0655 ± 0.00215 kcal/mol

Reference: the NIST ThermoML archive (doi:10.1021/je500088z)
